Patent US20240352145A1, “EFFICACY OF ANTI-TROP-2-SN-38 ANTIBODY DRUG CONJUGATES FOR THERAPY OF TUMORS RELAPSED/REFRACTORY TO CHECKPOINT INHIBITORS” (Immunomedics, Inc., priority 2016, published 2024)
“And” between values parts separate entries of the source, which are not always exact repeats. Equal values may be shown once.

Tests used:
[1] = Tolerability in Swiss-Webster mice; type: in vivo, mouse
BxPC-3 = assay: Cytotoxicity (MTS), Example 7, BxPC-3; type: cell-based, human; conditions: BxPC-3, 96 h
Method: One day prior to adding the ADC, cells were harvested from tissue culture and plated into 96-well plates at 2000 cells per well. […] Plates were incubated at 37° C. for 96 h. […] Growth inhibition was measured as a percent of growth relative to untreated cells using Microsoft Excel and Prism software (non-linear regression to generate sigmoidal dose response curves which yield IC50-values).

[2] = system: metastatic epithelial tumors; assay: Phase I trial of sacituzumab govitecan (25 patients); type: in vivo, human
Method: The trial was designed as a standard 3+3 Phase I design, starting at a dose of 8 mg/kg per injection, with dosages given weekly for 2 weeks in a 3-week treatment cycle.
Prior to the start of each infusion, most patients received acetaminophen, anti-histamines (H1 and H2 blockers), and dexamethasone. Prophylactic use of antiemetics or anti-diarrheal medications was prohibited. Therapy consisted of 2 consecutive doses given on days 1 and 8 of a 3-week treatment cycle, with the intent to allow patients to continue treatment for up to 8 cycles (i.e., 16 treatments) unless there was unacceptable toxicity or progression. Patients showing disease stabilization or response after 8 cycles could continue treatments.
The maximum tolerated dose (MTD) was judged on the patient's tolerance to the first treatment cycle.

TNBC = assay: Phase I/II, TNBC cohort; type: in vivo, human
Source text: Previous treatments included cyclophosphamide, doxorubicin, carboplatin, gemcitabine, capecitabine, eribulin, cisplatinum, anastrozole, vinorelbine, bevacizumab and tamoxifen.

COLO 205 = assay: In vitro cytotoxicity, COLO 205
Source text: Cell lines, antibodies, and chemotherapeutics—All human cancer cell lines used in this study were purchased from the American Type Culture Collection.

gastric cancer = assay: Case, stage IV metastatic gastric cancer
recombinant mouse Trop-2 = molecular target: T1, recombinant mouse Trop-2 (Mus musculus, UniProt Q8BGV3); assay: Trop-2 ELISA, murine; type: binding
T1 construct: purchased Sino Biological, Inc. 50922-M08H
T1 sequence (Q8BGV3 25-317): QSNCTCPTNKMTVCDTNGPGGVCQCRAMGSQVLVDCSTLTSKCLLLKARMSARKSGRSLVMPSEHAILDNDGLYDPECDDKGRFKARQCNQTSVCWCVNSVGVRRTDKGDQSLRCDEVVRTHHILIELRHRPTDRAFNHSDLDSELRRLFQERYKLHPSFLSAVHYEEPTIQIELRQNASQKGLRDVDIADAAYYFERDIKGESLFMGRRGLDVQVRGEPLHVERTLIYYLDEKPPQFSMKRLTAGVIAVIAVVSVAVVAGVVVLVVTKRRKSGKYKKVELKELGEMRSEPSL
Method: Trop-2 ELISA—Recombinant human Trop-2 with a His-tag (Sino Biological, Inc., Bejing, China; Cat #10428-H09H) and recombinant mouse Trop-2 with a His-Tag (Sino Biological, Inc., Cat #50922-M08H) were plated onto Ni-NTA Hissorb strips (Qiagen GmbH Cat #35023) at 1 μg for 1 h at room temperature. The plate was washed four times with PBS-Tween (0.05%) wash buffer. Serial dilutions of hRS7 were made in 1% BSA-PBS dilution buffer to a test range of 0.1 ng/mL to 10 μg/mL. The plates were then incubated for 2 h at room temperature before being washed four times followed by the addition of a peroxidase conjugated secondary antibody (goat anti-human, Fc fragment specific; Jackson Immunoresearch Cat #109-036-098). After a 45-min incubation, the plate was washed and a substrate solution (o-phenylenediamine dihydrochloride (OPD); Sigma, Cat #P828) added to all the wells. Plates were incubated in the dark for 15 min before the reaction was stopped with 4N sulfuric acid. The plates were read at 450 nm on Biotek ELX808 plate reader. Data were analyzed and graphed using Prism GraphPad Software (v4.03) (Advanced Graphics Software, Inc.; Encinitas, CA).

[3] = update of on-going trial, 17 TNBC patients

Substance: IMMU-132
- hematopoietic toxicity ([1]; 2 doses of 4, 8, 12 mg SN-38/kg): No hematopoietic toxicity occurred
- tolerability, weight loss ([1]; 2 doses over 3 days, each of 4, 8, and 12 mg SN-38/kg): minimal transient weight loss
- aspartate transaminase (AST) ([1]; mouse, in vivo): > 298 U/L
- liver histology ([1]; mouse, in vivo): did not show histologic evidence of tissue damage
- mice with slightly elevated glucose ([1]; mouse, in vivo): 5 of 7
- MTD, cumulative dose over 1 week ([1]; normal mice, no acute toxicity): > 24 mg/kg SN-38
- IC50 (BxPC-3): 5.8 nM
- Delay/adjustment 1st cycle, patients ([2]; 8 mg/kg, 7 patients treated): 1
- Dose-limiting toxicity 1st cycle, patients ([2]; 8 mg/kg, 7 patients treated): 0
- patients with grade-3 diarrhea ([2]; 10 mg/kg dose level): 1
- Delay/adjustment 1st cycle, patients ([2]; 10 mg/kg, 6 patients treated): 0
- Dose-limiting toxicity 1st cycle, patients ([2]; 10 mg/kg, 6 patients treated): 0
- Delay/adjustment 1st cycle, patients ([2]; 12 mg/kg, 9 patients treated): 5
- Dose-limiting toxicity 1st cycle, patients ([2]; 12 mg/kg, 9 patients treated, listed as sacituzumab govitecan): 0/9 and 0
- Delay/adjustment 1st cycle, patients ([2]; 18 mg/kg, 3 patients treated): 2
- median time to progression ([2]; 24 patients): 3.6 months
- time to progression, range ([2]; 24 patients): 1-12.8 months
- febrile neutropenia, patients ([2]; 25 patients): 2
- long-term survival (15-20 months) ([2]; 25 patients): ~25%
- patients with >30% reduction of target lesions ([2]; 25 patients): 12%
- patients with SD ([2]; 25 patients): 60%
- free SN-38 as share of total SN-38, average ([2]; 28 30-min serum samples from 7 patients, HPLC): 2.91±0.91%
- infusion-related adverse events ([2]; 297 infusions over 2-3 h): no infusion-related adverse events
- adverse event possibly related to treatment ([2]; GC patient #9, 1 dose of 10 mg/kg): grade 3 febrile neutropenia
- progressed (PD) as best response, patients ([2]; RECIST 1.1): 7
- partial responses, patients ([2]; RECIST 1.1, 25 patients): 3
- stable disease as best response, patients ([2]; RECIST 1.1, 25 patients, listed as Sacituzumab govitecan): 15
- stable disease as best response, patients ([2]; RECIST 1.1, 25 patients, listed as sacituzumab govitecan): Fifteen
- tumor shrinkage ([2]; SCLC patient who failed prior topoisomerase I inhibitor therapy): 38%
- median time to progression ([2]; advanced pancreatic ductal cancer, N=7): 2.9 months
- tumor shrinkage ([2]; colon cancer patient who failed prior topoisomerase I inhibitor therapy): 13%
- intact conjugate in trough serum samples ([2]; drawn immediately before next dose): no sacituzumab govitecan could be detected
- antibody response to hRS7 IgG or SN-38 ([2]; multiple cycles for up to 12 months): no antibody response to the hRS7 IgG or SN-38 was detected
- reduction in target lesions ([2]; patient 10, CRC, 5 doses of 10 mg/kg): 23%
- maximum reduction in target lesions ([2]; patient 10, CRC, after 18 doses): 28%
- plasma CEA ([2]; patient 10, CRC, baseline 38.5 ng/mL): 1.6 ng/mL
- time to progression ([2]; patient 18, TNBC): 45 weeks
- reduction in target lesions ([2]; patient 18, TNBC, after 3 doses): 13%
- reduction in target lesions ([2]; patient 18, TNBC, after 16 doses): 19%
- period until progression ([2]; patient 20, HRPC, 34 treatments): 12.7 months
- period of SD ([2]; patient 25, esophageal cancer, 18 then 13.5 mg/kg): 30 weeks
- period of disease stabilization ([2]; patient #11, PDC): 15 weeks
- CA19-9 serum titer ([2]; patient #11, PDC, 10 mg/kg, after 8 doses, baseline 5880): 2840 units/mL
- SN-38 bound to the IgG ([2]; patient #25, 13.5 mg/kg): 96.8%
- free SN-38, average ([2]; patient #25, 13.5 mg/kg): 105.4 ± 47.7 ng/mL
- free SN-38G as share of total SN-38+SN-38G ([2]; patient #25, 13.5 mg/kg): 11.6%
- free SN-38G, average ([2]; patient #25, 13.5 mg/kg): 13.9 ± 4.1 ng/mL
- total SN-38, average ([2]; patient #25, 13.5 mg/kg, 11 peak acid-hydrolyzed samples): 3309.8 ± 601.8 ng/mL
- Free SN-38G ([2]; patient #25, 18 mg/kg): 26.2 ng/mL
- free SN-38 (non-hydrolyzed sample) ([2]; patient #25, 18 mg/kg): 155.2 ng/mL
- free SN-38G as share of total unbound SN-38+SN-38G ([2]; patient #25, 18 mg/kg): 14.4%
- free SN-38 as share of total ([2]; patient #25, 18 mg/kg): 3.0%
- total SN-38 (acid-hydrolyzed sample) ([2]; patient #25, 18 mg/kg): 5,089 ng/mL
- SN-38G as share of free SN-38 levels in serum ([2]; patients): 20-40%
- median time to progression ([2]; patients with SD or PR (N=18)): 4.1 months
- time to progression, range ([2]; patients with SD or PR (N=18)): 2.6-12.8 months
- patients with response or disease stabilization ([2]; patients with prior topoisomerase I inhibitor): 7 of 9
- SN-38 in serum bound to IgG ([2]; peak samples, 30 min after infusion): > 96%
- time to progression from onset of therapy ([2]; responder with SCLC): 2.9 months
- time to progression from onset of therapy ([2]; responder with TNBC): 4.3 months
- time to progression from onset of therapy ([2]; responder with colon cancer): 7.1 months
- reduction of target lesions ([2]; two of nine patients with prior topoisomerase-I inhibitor therapy, listed as sacituzumab govitecan): 28% and 38%
- clinical benefit rate (PR+SD≥6 months) [2, 3]: 46%
- overall response rate (PR) [2, 3]: 29%
- confirmed complete responses (CR), patients (TNBC; 10 mg/kg): 2
- partial responses (PR), patients (TNBC; 10 mg/kg): 13
- stable disease (SD), patients (TNBC; 10 mg/kg): 25
- objective response rate (TNBC; 15/52): 29%
- favorable response rate (CR plus PR plus SD) (TNBC; in vivo): 71%
- median time to progression (TNBC; in vivo): 9.4 months
- IC50 (COLO 205): 1.95 nM
- tolerability (gastric cancer; 10 mg/kg): some mild nausea and diarrhea
- disease reduction from baseline by RECIST (gastric cancer; after another 5 courses): about 35%

Substance: hRS7 IgG
- cross-reactivity (recombinant mouse Trop-2): no cross-reactivity with the murine Trop-2
